Reference: patent US6451288B1, “Method of treating lung diseases with uridine 5′-diphosphate and analogs thereof” (The University of North Carolina at Chapel Hill, priority 1997, dated 2002)

Columns and labels:
[1] = test system: human nasal epithelial cells; test: [3H]inositol phosphate formation in polarized human nasal epithelial cells; format: cell-based
Method: (§1) Human nasal epithelial cells were harvested from turbinates using protease XIV (Sigma, St. Louis, Mo.) for 24-48 h at 4° C., as previously described. R. Wu, et al., Am. Rev. Respir. Dis. 132, 311-320 (1985). Cytosolic Ca^2+ and inositol phosphate measurements were made on nasal cell monolayers plated on porous Transwell Col filters (pore diameter 0.45 μm; Costar, Cambridge, Mass.) and maintained in Ham's F12 media supplemented with 10 ng/mL epidermal growth factor, 3.75 ng/mL endothelial cell growth factor, 500 ng/mL hydrocortisone, 5 ng/mL insulin, and 1 mM CaCl2 (Ham's F12+4X medium). Assays were carried out 7 to 10 days after seeding, a time coincident with the development of the maximal transepithelial potential difference according to N. Nakahata & T. K. Harden, Biochem. J. 241, 337-344 (1987).
Confluent human nasal epithelial cells as described in Example 1 were labeled for 18 h in inositol-free DMEM containing 4.5g/L glucose and 5 μCi/mL of [^3H]myo-inositol. These cells were pre-incubated with 10 mM LiCl and challenged with agonists for an additional 10 min. No changes of medium were made subsequent to addition of [^3H]myo-inositol to avoid release of endogenous ATP from stressed cells. E. R. Lazarowski et al., Br. J Pharmacol. 116, 1619-1627 (1995). Incubations were terminated by addition of 5% ice-cold trichloroacetic acid and the resultant [^3H]inositol phosphates were separated on Dowex AG1-X8 columns as described in A. M. Paradiso et al., Nature 377, 643-646 (1995).

[2] = test system: human nasal epithelial cells; test: Cl- secretion (transepithelial potential difference, Ussing chamber) in human nasal epithelial cells; format: cell-based
Method: as §1
(§2) Nasal cells grown on Transwell Col filters affixed to O-rings were maintained in F12+4X medium and studied 7-10 days after cell plating as described above. For Ca^2+i measurements, cells were loaded with Fura-2 and mounted in a miniature Ussing chamber over an objective of a microscope (Zeiss) coupled to a microfluorimeter, and cytosolic Ca^2+i levels were quantitated as previously described in Paradiso et al., supra. The fluorescence intensity ratio (excitation 340/380; emission λ 450 nm) was collected from a field of 30-40 nasal cells on monolayers and converted to Ca^2+ as previously described in E. H. Larsen et al, J. Physiol. 424, 109-131 (1990). For simultaneous measurements of Cl^− secretion, the transepithelial potential difference (TEP) was measured by a Voltage-Clamp/Pulse Generator (Model VCC600, Physiologic Instruments, San Diego, Calif.) and recorded on a two-channel recorder (Linsesis Model L200S). To calculate changes in Cl^− secretory current (ΔICl^−), a defined 1 sec current pulse was delivered across the monolayer every 10 sec. The nasal tissue was converted from its native Na^+ absorptive state to a Cl^− secretory state by exposing monolayers to a luminal medium containing 0 Na^+/low Cl^− and to a basolateral medium of Krebs bicarbonate Ringer solution.

sheep [3] = test: Tracheal mucus velocity in sheep; format: in vivo; settings: 400 μmole nebulized
Description: To measure the effect of UDP on tracheal mucus velocity (TMV), the nasal passages of conscious adult ewes were anesthetized with a 2% lidocaine solution. After local anesthesia was produced, a modified endotracheal tube (7.5 mm) was placed such that the cuff was just below the vocal cords (as verified by fluoroscopy). Inspired air was warmed and humidified. The cuff on the endotracheal tube was inflated only during administration of the test compound to minimize possible impairment of TMV by the cuff. Test compounds were administered by nebulization in a volume of 4 mL over a period of 10-12 min. TMV was measured by fluoroscopy. Ten to twenty radiopaque disks (Teflon/bismuth trioxide; 1 mm diameter; 0.8 mm thick, weighing 1.8 mg) were introduced into the trachea through a modified suction catheter with a puff of compressed air (3-4 L/min). Velocities of the individual disks were recorded on videotape form a portable image intensifier unit. Individual disk velocities were calculated by measuring the distance traveled by each disk during a 1 min observation period. Values reported are the means of the individual disk velocities. A collar was worn by the sheep, which was used as a standard to correct for magnification errors inherent in the fluoroscope.

sheep [4] = test: Mucociliary clearance in sheep; format: in vivo; settings: 400 μmole nebulized
Method: Healthy adult ewes were given ^99mTc-labeled serum albumin (^99mTc-HCA) via a nebulized aerosol. The (^99mTc-HCA)(20 mCi) was administered over 5 minutes through a nasotracheal tube introduced under local anesthesia with 2% lidocaine. After administration of the ^99Tc-HCA, the animals were given the test compound UDP. The test compound was administered by nebulization in a volume of 4 mL over a period of 10-12 min. The test compound was given at a dose of 400 μmole. After the administration of the test compound, the animals were extubated. Clearance of the radiolabeled particles was monitored with a gamma camera. Measurements were made a 0, 5, 10, 15, 20, 25, 30, 35, 40, 45, 50, 55, 60, 75, 90, 105 and 120 minutes. Results of this study (n=7) have shown that the test compound promotes clearance of radiolabeled particles when compared to the saline control. […] The response to UDP was maximal at 60 minutes and was maintained for the second hour of the study. The results of this experiment are illustrated graphically in FIG. 6.

[5] = test system: human nasal epithelial cells; test: Cytosolic Ca2+ measurement (Fura-2) in human nasal epithelial cells; format: cell-based
Method: as §1, §2

P2Y2 receptor = P2Y2 receptor (Homo sapiens, UniProt P41231); settings: UTP-free UDP; cited from earlier work
[6] = subsequent 3 μM then 10 μM UDP, mucosal (desensitization)

Chain of P2Y2 receptor (P41231 whole entry): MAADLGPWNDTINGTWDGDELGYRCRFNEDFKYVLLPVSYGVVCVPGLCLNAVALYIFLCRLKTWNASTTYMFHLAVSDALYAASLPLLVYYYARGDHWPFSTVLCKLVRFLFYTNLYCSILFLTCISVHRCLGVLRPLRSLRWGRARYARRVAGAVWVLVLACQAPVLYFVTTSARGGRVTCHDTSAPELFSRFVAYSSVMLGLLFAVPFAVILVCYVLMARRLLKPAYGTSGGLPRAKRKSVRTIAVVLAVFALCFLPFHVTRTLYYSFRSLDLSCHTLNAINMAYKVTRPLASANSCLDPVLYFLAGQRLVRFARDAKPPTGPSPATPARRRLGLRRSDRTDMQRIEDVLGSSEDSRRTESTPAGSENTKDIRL

SMILES: O=c1ccn([C@@H]2O[C@H](COP(=O)(O)OP(=O)(O)O)[C@@H](O)[C@H]2O)c(=O)[nH]1 [UDP, uridine 5′-diphosphate]
- Accumulation of [3H]inositol phosphates, mucosal ([1]; 100 μM, mucosal): marked accumulation
- Effect on inositol phosphate accumulation, serosal bath ([1]; 100 μM, serosal): negligible effect
- EC50 ([1]; Homo sapiens, Epithelial cell, 10 min, added to mucosal medium, 10 min, read-out: EC50 for stimulating inositol phosphate formation): 190 ± 27 nM
- Maximal inositol phosphate effect relative to response with mucosal UTP ([1]; mucosal, 100 μM): approximately one half
- ΔICl-, mucosal ([2]; 3 μM, mucosal): 16±3 μA·cm^2
- Cl- secretory response (ΔICl-) ([2]; 3 μM, mucosal bath, first addition, n=8): −16.3±3 μA/cm^2
- ΔICl-, serosal ([2]; 3 μM, serosal): 0±0 μA·cm^2
- Magnitude of Cl- secretion response relative to mucosal UTP response ([2]; mucosal): approximately one half
- ΔICl- after subsequent addition [2, 6]: 0
- Time of maximal effect after administration (TMV) (sheep [3]): 15 min
- Time of maximal response (clearance) (sheep [4]): 60 min
- Maximal effect, clearance of radiolabeled particles (sheep [4]; n=7): 33.6±1.6 % clearance
- ΔCa2+ (mobilization of intracellular calcium) ([5]; 3 μM, mucosal bath, first addition): 66 ± 12 nM
- Maximal calcium mobilization effect relative to response with mucosal UTP ([5]; mucosal, 100 μM): approximately one half
- ΔCa2+ after subsequent addition [5, 6]: 0
- Activity at the P2Y2 receptor (P2Y2 receptor): essentially inactive
